Results on three compounds are retold here after patent US4785090A, “Cephalosporin derivatives” (Meiji Seika Kaisha, Ltd., priority 1984, dated 1988).

The subject of series [1] is Staphylococcus aureus 209PJC1. In words: Minimum Growth Inhibitory Concentration (MIC), Staphylococcus aureus 209PJC1. The class given is cell-based.
Excerpt: (§1) Minimum Growth Inhibitory Concentration (MIC) mcg/ml
1. Staphylococcus aureus 209PJC1
as §1
2. Staphylococcus aureus 209 PJC1

For series [2], the system named is Bacillus subtilis. In words: Minimum Growth Inhibitory Concentration (MIC), Bacillus subtilis. Format: cell-based. The note with it: Table 1, bacterium 2: Bacillus subtilis.
Excerpt: as §1

In series [3] the test system is Escherichia coli RGN 823. In words: Minimum Growth Inhibitory Concentration (MIC), Escherichia coli RGN 823. Format: cell-based. As to conditions: RGN823; Table 1, bacterium 3: Escherichia coli RGN 823.
Excerpt: as §1
3. Escherichia coli RGN 823

Series [4] deals with Klebsiella pneumoniae GN 69. In words: Minimum Growth Inhibitory Concentration (MIC), Klebsiella pneumoniae GN 69. Format: cell-based. As to conditions: GN69; Table 1, bacterium 4: Klebsiella pneumoniae GN 69.
Excerpt: as §1
4. Klebsiella pneumoniae GN 69

Series [5] has as its system Serratia marcescens N 01. In words: Minimum Growth Inhibitory Concentration (MIC), Serratia marcescens N 01. As to conditions: N01; Table 1, bacterium 7: Serratia marcescens N 01. Format: cell-based.
Excerpt: as §1
7. Serratia marcescens N 01

Series [6] relates to Pseudomonas aeruginosa MB 3833. In words: Minimum Growth Inhibitory Concentration (MIC), Pseudomonas aeruginosa MB 3833. As to conditions: MB3833; Table 1, bacterium 8: Pseudomonas aeruginosa MB 3833. Format: cell-based.
Excerpt: as §1
8. Pseudomonas aeruginosa MB 3833

Series [7] concerns Streptococcus faecalis ATCC 8043. The series can be described thus: Minimum Growth Inhibitory Concentration (MIC), Streptococcus faecalis ATCC 8043. The class given is cell-based. As to conditions: Enterococcus faecalis, ATCC8043; Table 1, bacterium 9: Streptococcus faecalis ATCC 8043.
Excerpt: as §1
9. Streptococcus faecalis ATCC 8043

The subject of series [8] is Proteus vulgaris GN 76. In words: Minimum Growth Inhibitory Concentration (MIC), Proteus vulgaris GN 76. The class given is cell-based.
Excerpt: as §1
10. Proteus vulgaris GN 76
as §1
8. Proteus vulgaris GN 76

The subject of series [9] is Enterobacter cloacae G0005. The series can be described thus: Minimum Growth Inhibitory Concentration (MIC), Enterobacter cloacae G0005. The class given is cell-based. As to conditions: Table 1, bacterium 11: Enterobacter cloacae G0005.
Excerpt: as §1
11. Enterobacter cloacae G0005

Series [10] is described as follows: Serum concentration in mice after subcutaneous administration. As to conditions: mouse, sc, subcutaneous 25 mg/kg; for concentration at 0.5 h: 1/2 hr; for concentration at 0.25 h: 1/4 hr; for concentration at 5 min: 1/12 hr. Format: in vivo. The method, then: The experiment was conducted by using 3 mice (average body weight 20 g) in each group, subcutaneously administering 25 mg/kg of the sample, taking blood samples at predetermined intervals, separating the serum and measuring the sample concentration by an antibacterial activity test using Escherichia coli as a testing bactera.

In series [11] the test system is Cephalosporinase-producing Escherichia coli GN206. In words: Treatment of experimental infection in mice (Escherichia coli GN206). The class given is in vivo. The note with it: intraperitoneal infection 1.25×10^6 CFU/mouse, subcutaneous one hour after infection, survival at one week.
The nature of series [12]: Toxicity test in mice (intravenous). Format: in vivo. The note with it: for LD50 at 168 h: mouse, in vivo. The text has this:
Further, the compound of Example 28 was intravenously adminstered to 3 mice at a dose of 1 g/kg and also the compounds of Examples 34 and 51 were similarly administered at a dose of 3 g/kg respectively, and the number of survivor was examined after a week.

Series [13] has as its system Staphylococcus aureus Smith. In words: Minimum Growth Inhibitory Concentration (MIC), Staphylococcus aureus Smith. Format: cell-based. As to conditions: Staphylococcus aureus, read-out: Minimum Growth Inhibitory Concentration (MIC).
Excerpt: as §1
1. Staphylococcus aureus Smith

Series [14] has as its system Escherichia coli NIHJ JC2. The series can be described thus: Minimum Growth Inhibitory Concentration (MIC), Escherichia coli NIHJ JC2. As to conditions: Escherichia coli, NIHJJC2, read-out: Minimum Growth Inhibitory Concentration (MIC). The class given is cell-based.
Excerpt: as §1
3. Escherichia coli NIHJ JC2

In series [15] the test system is Eshcerichia coli GN 206. In words: Minimum Growth Inhibitory Concentration (MIC), Escherichia coli GN 206. Format: cell-based.
Excerpt: as §1
4. Eshcerichia coli GN 206

The test system of series [16] is Klebsiella pneumoniae PCI 602. The series can be described thus: Minimum Growth Inhibitory Concentration (MIC), Klebsiella pneumoniae PCI 602. As to conditions: Klebsiella pneumoniae, PCI602, read-out: Minimum Growth Inhibitory Concentration (MIC). The class given is cell-based.
Excerpt: as §1
5. Klebsiella pneumoniae PCI 602

The test system of series [17] is Proteus mirabilis GN 79. In words: Minimum Growth Inhibitory Concentration (MIC), Proteus mirabilis GN 79. The class given is cell-based. The note with it: Proteus mirabilis, GN79, read-out: Minimum Growth Inhibitory Concentration (MIC).
Excerpt: as §1
6. Proteus mirabilis GN 79

Series [18] deals with Salmonella typhimurium LT2. In words: Minimum Growth Inhibitory Concentration (MIC), Salmonella typhimurium LT2. The class given is cell-based. As to conditions: Salmonella enterica, TYPHIMURIUM, read-out: Minimum Growth Inhibitory Concentration (MIC).
Excerpt: as §1
7. Salmonella typhimurium LT2

Series [19] deals with Proteus rettgeri GN624. In words: Minimum Growth Inhibitory Concentration (MIC), Proteus rettgeri GN624. The class given is cell-based. The note with it: Providencia rettgeri, GN624, read-out: Minimum Growth Inhibitory Concentration (MIC).
Excerpt: as §1
9. Proteus rettgeri GN624

Series [20] deals with Serratia marcescens No. 2. In words: Minimum Growth Inhibitory Concentration (MIC), Serratia marcescens No. 2. The class given is cell-based. As to conditions: Serratia marcescens, NO.2, read-out: Minimum Growth Inhibitory Concentration (MIC).
Excerpt: as §1
10. Serratia marcescens No. 2

Setting [21] is: Table 1, bacterium 1: Staphylococcus aureus 209PJC1, read-out: Minimum Growth Inhibitory Concentration (MIC).
[22] abbreviates: GN76, Table 1, bacterium 10: Proteus vulgaris GN 76, read-out: Minimum Growth Inhibitory Concentration (MIC).

Counter-ions that a name gives are not always drawn. Like-named read-outs stand apart in the source and are kept apart here.

For `C[n+]1ccc(SCC2=C(C(=O)[O-])N3C(=O)[C@@H](NC(=O)/C(=N\OCC(=O)O)c4csc(N)n4)[C@H]3SC2)c2c1CCC2` [Example 51, (6R,7R)-7-[(Z)-2-(2-Aminothiazol-4-yl)-2-(carboxymethoxyimino)acetamido]-3-[(2,3-cyclopenteno-1-methylpyridinium-4-yl)thiomethyl]-ceph-3-em-4-carboxylic acid sodium salt], the MIC in [1] (setting [21]) was 1.56 µg/mL; in [2] it was 0.05 µg/mL; in series [3], 0.1 µg/mL; in [4], no more than 0.025 µg/mL; in series [5] it was no more than 0.025 µg/mL; in [6], 6.25 µg/mL. For the same compound, the figures for the MIC in [7], in series [8] (setting [22]) and in series [9] were 1.56 µg/mL, no more than 0.025 µg/mL and 0.05 µg/mL, respectively. Further, the concentration at 0.5 h in series [10] is 24000 ng/mL. For the same compound, the concentration at 0.25 h in series [10] stood at 34000 ng/mL. Moreover, in [10], the concentration at 5 min came to 27000 ng/mL. In [10], the concentration at 1 h turned out to be 5400 ng/mL. In [11], this compound returned an ED50 of 0.37 mg/mouse. For the same compound, the LD50 at 168 h in [12] (iv) is no less than 3000 mg/kg.

Consider `CO/N=C(\C(=O)N[C@@H]1C(=O)N2C(C(=O)[O-])=C(CSc3cc[n+](CC(=O)O)c4c3CCC4)CS[C@H]12)c1csc(N)n1` [Example 34, (6R,7R)-7-[(Z)-2-(2-Aminothiazol-4-yl)-2-methoxyiminoacetamido]-3-[(2,3-cyclopenteno-1-carboxymethylpyridinium-4-yl)thiomethyl]-ceph-3-em-4-carboxylicacid sodium salt], for which the MIC in series [1] (setting [21]) is 0.78 µg/mL; in series [2], 1.56 µg/mL; in [3], no more than 0.025 µg/mL; in [4], no more than 0.025 µg/mL; in [5], 0.05 µg/mL; in series [6], 6.25 µg/mL. For the same compound, the figures for the MIC in series [7], in series [8] (setting [22]) and in [9] were 6.25 µg/mL, 0.1 µg/mL and 0.2 µg/mL, respectively. Further, the concentration at 0.5 h in series [10] was 21000 ng/mL. Also, the concentration at 0.25 h in series [10] was determined as 35000 ng/mL. This compound also came in with a concentration at 5 min in series [10] of 25000 ng/mL. In series [10], this compound came in with a concentration at 1 h of 6400 ng/mL. Moreover, the ED50 in [11] is recorded as 0.3 mg/mouse. The compound also had a median lethal dose (LD50) at 168 h in series [12] (iv) of no less than 3000 mg/kg.

In the case of `CCO/N=C(\C(=O)N[C@@H]1C(=O)N2C(C(=O)O)=C(CSc3cc[n+](CC(=O)O)cc3)CS[C@H]12)c1csc(N)n1.[Na+]`, the MIC is 0.39 µg/mL in series [1] (Staphylococcus aureus, 209PJC1, read-out: Minimum Growth Inhibitory Concentration (MIC)); 0.1 µg/mL in series [8] (Proteus vulgaris, GN76, read-out: Minimum Growth Inhibitory Concentration (MIC)); 0.78 µg/mL in [13]; 0.78 µg/mL in series [14]; 0.39 µg/mL in [15] (GN206, read-out: Minimum Growth Inhibitory Concentration (MIC)); 0.39 µg/mL in [15] (GN206, read-out: minimum growth inhibitory concentration (MIC)). For the same compound, the MIC in series [16] amounted to 0.05 µg/mL; in series [17] it was 0.39 µg/mL; in series [18] it was 0.1 µg/mL; in series [19] it was 1.56 µg/mL; in series [20] it was 0.2 µg/mL. In series [10], this compound came in with a concentration at 0.5 h of 28500 ng/mL. Moreover, in series [10], the concentration at 0.25 h worked out at 31000 ng/mL. In series [10], this compound showed a concentration at 5 min of 26000 ng/mL. Moreover, the concentration at 1 h in series [10] was 4000 ng/mL. In series [11], this compound gave an ED50 of 0.065 mg/mouse. Further, the “survival after a week” value in [12] (mice, intravenous, 1 g/kg) is listed as “all the mice survived”. Besides, the LD50 at 168 h in series [12] (mice, intravenous, survivors after a week) is no less than 1000 mg/kg.
